Experimental data as given in patent US11096906B2, “Pharmaceutical composition for preventing or treating Alzheimer's disease” (SFCBIO. CO., LTD., priority 2015, dated 2021).

How the values were obtained:
Assay type in all cases: cell-based
[1] = tested on: sAPPβ protein; experiment: Amount of sAPPβ protein released from APPwt-CHO cells, by western blot; details: for reduction of the amount of sAPPβ protein as compared to the control group: APPwt-CHO cells
Description: (§1) In order to evaluate the ability of suppressing β-amyloid formation of Compounds 1-3, APPwt-CHO cells obtained by overexpressing APP in CHO cells were used and the amount of the sAPPβ protein cleaved by β-secretase and released out of the cells was measured by western blot. When the APP precursor protein is cleaved first by β-secretase, sAPPβ is released out of the cell. The protein remaining attached to the membrane is cleaved again by γ-secretase to produce β-amyloid. Accordingly, the amount of β-secretase and sAPPβ is proportional to the amount of the produced β-amyloid. Therefore, the amount of the two proteins was measured by western blot.

[2] = tested on: β-secretase; experiment: Amount of β-secretase protein in APPwt-CHO cells, by western blot; details: for reduction of the amount of β-secretase protein as compared to the control group: APPwt-CHO cells
Description: as §1

[3] = tested on: APP*t-CHO cells; experiment: MTT-based cytotoxicity assay
Description: The cytotoxicity of Compounds 1-3 separated and identified in Examples 1-5 was investigated by MTT-based cytotoxicity assay. APP*t-CHO cells treated with Compounds 1-3 were cultured for 24 hours. After adding a 5 mg/mL MTT solution, the cells were cultured for 4 hours. After removing the culture medium and lysing the cells for 30 minutes by adding DMSO, absorbance was measured at 540 nm using the Emax precision microplate reader (Molecular Devices, CA, USA).

[4] = 100 μg/mL, cells cultured 24 hours, MTT

Compound | reduction of the amount of sAPPβ protein as compared to the control group ([1]; 10 μg/mL) | reduction of the amount of sAPPβ (in words) ([1]; 20 μg/mL) | reduction of the amount of sAPPβ protein as compared to the control group ([1]; 20 μg/mL) | decrease of the amount of β-secretase (in words) [2] | reduction of the amount of β-secretase protein as compared to the control group ([2]; 10 μg/mL) | reduction of the amount of β-secretase protein as compared to the control group ([2]; 20 μg/mL) | cytotoxicity ([3]; 20 μg/mL) | cytotoxicity [3, 4] | concentration at which toxicity was shown ([3]; cells cultured 24 hours, MTT) | reduction of the amount of sAPPβ protein as compared to the control group ([1]; 100 μg/mL) | reduction of the amount of β-secretase protein as compared to the control group ([2]; 100 μg/mL)
CCCC(=O)c1c(O)cc(O)c(C)c1O [Compound 3, 2-butyryl-4-methylphloroglucinol] | about 40% | almost perfectly | about 80% | effectively decreased | about 20% | about 30% | no toxicity was observed | showed toxicity | ≥ 30000 ng/mL |  | 
CCC(=O)c1c(O)cc(O)c(C)c1O [Compound 2, 2-propionyl-4-methylphloroglucinol] |  |  | about 40% |  |  | about 40% |  | no toxicity |  | about 80% | about 60%
CCCC(=O)c1c(O)cc(O)cc1O [Compound 1, butyrylphloroglucinol] | about 20% |  | about 70% |  | about 10% | about 30% |  | no toxicity |  |  | 
